Results taken from ChEMBL document CHEMBL1128114, “Enzymatic resolution and pharmacological activity of the enantiomers of 3,5-dihydroxyphenylglycine, a metabotropic glutamate receptor agonist” (Bioorg Med Chem Lett, 1995).

Target: Metabotropic glutamate receptor
Experiment: Compound was tested for ability to stimulate metabotropic glutamate receptor (mGluR) mediated phosphoinositide hydrolysis in rat hippocampus
Assay type: functional, tissue-based

Compound | EC50 [µM]
N[C@H](C(=O)O)c1cc(O)cc(O)c1 | 10.9
N[C@@H](C(=O)O)c1cc(O)cc(O)c1 | 106
